Source: patent publication US20080268076A1, “Composition for Inhibiting Acyl-Coa:Cholesterol Acyltransferase” (priority 2005, published 2008)

Test system: acyl-CoA:cholesterol acyltransferase (ACAT)
Assay: Assay for ACAT activity with [1-14C]oleoyl-CoA and rat liver microsomal enzyme
Conditions: ACAT inhibition, compared with the positive control obovatol
Description: The livers were removed from Male Sprague-Dawley rats (250-300 g), washed with microsome buffer A (0.25 M sucrose, 1 mM EDTA, 0.01 M Tris-HCl, pH 7.4), finely fractioned with scissors, and homogenized using a Teflon-glass homogenizer.
A reaction solution was prepared by mixing 10.0 μl of the sample, 4.0 μl of a rat liver microsomal enzyme of rat, 20.0 μl of an assay buffer [0.5 M KH2PO4, 10 mM DTT, pH 7.4], 15.0 μl of 40 mg/me BSA (essentially fatty acid free), 2.0 μl of 20 mg/me cholesterol, and 41.0 μl of distilled water, and subjected to pre-reaction at 37° C. for 20 min. To this enzymatic solution was added 8.0 μl of [1-^14C]oleoyl-CoA (0.05 μCi, final conc. 10 μM), and enzyme reaction was carried out at 37° C. for 25 min and terminated with 1 ml of isopropanol-heptane (4:1 v/v). Following the addition of 0.6 ml of heptane and 0.4 ml of five fold-diluted assay buffer, centrifugation was performed to separate the organic solvent. 100 μl of the supernatant was mixed well with 3 ml of Lipoluma scintillation cocktail and radioactivity was measured using a liquid scintillation counter.
Activity of inhibiting ACAT was quantified as radioactivity detected in the product of the reaction between the radio-labeled substrate and the enzyme in the presence of the assay samples, and percentage activity inhibition was calculated according to Equation 1 as follows.
CPM (T): CPM detected upon co-existence of sample and enzyme
CPM (C1): CPM upon existence of enzyme alone in the absence of sample
CPM (C2): CPM detected upon existence of sample alone in the absence of enzyme
CPM (B): CPM detected in the absence of both enzyme and sample.

Row | inhibitory activity relative to obovatol [times] | Compound
1 | 12 | CC(C)CNC(=O)/C=C/C=C/CCCC/C=C/c1ccc2c(c1)OCO2 [Chemical Formula 2, pipercide]

Same assay, conditions: read-out: IC50 against ACAT; rat liver microsomal enzyme

Row | Compound | IC50 [µM]
2 | CC(C)CNC(=O)/C=C/C=C/CC/C=C/c1ccc2c(c1)OCO2 [Chemical Formula 1, retrofractamide A] | 24.5
3 | O=C(/C=C/CCCCCCc1ccc2c(c1)OCO2)N1CCCCC1 [Chemical Formula 3, piperrolein B] | 87.5
4 | CC(C)CNC(=O)/C=C/CCCCCC/C=C/c1ccc2c(c1)OCO2 [Chemical Formula 4, piperchabamide D] | 11.5
5 | obovatol [reference compound] | 44

The remaining compounds from weak to strong by IC50, led by results:

Row | IC50 [µM] | Compound
6 | 40.4 | CCCCC/C=C/C=C/C(=O)NCC(C)C [Chemical Formula 5, pellitorin]
7 | 3.7 | CC(C)CNC(=O)/C=C/C=C/CCCC/C=C/c1ccc2c(c1)OCO2 [Chemical Formula 2, pipercide]
